Data set [1] deals with Cruzipain (Trypanosoma cruzi) (UniProt P25779). The data set is described as follows: Inhibition of Trypanosoma cruzi cruzipain using Z-Phe-Arg-AMC as substrate at 0.3 uM incubated for 5 mins prior to substrate addition measured after 10 mins by fluorescence assay.
The subject of data set [2] is Trypanosoma cruzi. The experiment in a line: Antitrypanosomal activity against amastigote stage of Trypanosoma cruzi Dm28c infected in African green monkey Vero cells assessed as growth inhibition at IC50 incubated 8 hrs post infection measured after 24 hrs relative to control. The class given is functional.
For data set [3], the system named is Trypanosoma cruzi. The experiment in a line: Antitrypanosomal activity against epimastigote stage of Trypanosoma cruzi Dm28c infected in African green monkey Vero cells after 72 hrs relative to untreated control. The data set is classed as functional, organism-based.
Data set [4] deals with Trypanosoma cruzi. The experiment in a line: Antitrypanosomal activity against amastigote stage of Trypanosoma cruzi Dm28c infected in African green monkey Vero cells assessed as growth inhibition at 2 times IC50 incubated 8 hrs post infection measured after 24 hrs relative to control. The class given is functional.
The nature of data set [5]: Selectivity index, ratio of CC50 for African green monkey Vero cells to IC50 for epimastigote stage of Trypanosoma cruzi Dm28c. The class given is functional.
The target of data set [6] is Cruzipain (Trypanosoma cruzi) (UniProt P25779). The experiment in a line: Inhibition of Trypanosoma cruzi cruzipain using Z-Phe-Arg-AMC as substrate at 2 uM incubated for 5 mins prior to substrate addition measured after 10 mins by fluorescence assay.
The target is the same in data set [7]. The experiment in a line: Inhibition of Trypanosoma cruzi cruzipain using Z-Phe-Arg-AMC as substrate at 10 uM incubated for 5 mins prior to substrate addition measured after 10 mins by fluorescence assay.
The nature of data set [8]: Cytotoxicity against African green monkey Vero cells after 72 hrs by resazurin assay. The class given is cell-based. The settings on record: chlorocebus sabaeus. Background: Alamar Blue is a resazurin reagent that responds to reducing activity.
Data set [9] deals with Trypanosoma cruzi. The experiment in a line: Antitrypanosomal activity against amastigote stage of Trypanosoma cruzi Dm28c infected in African green monkey Vero cells assessed as growth inhibition at 4 times IC50 incubated 8 hrs post infection measured after 24 hrs relative to control. The data set is classed as functional.
Data set [10] concerns Trypanosoma cruzi. The data set is described as follows: Antitrypanosomal activity against amastigote stage of Trypanosoma cruzi Dm28c infected in African green monkey Vero cells assessed as growth inhibition at 15 uM incubated 8 hrs post infection measured after 24 hrs relative to control. The class given is functional. The settings on record: read-out: GI.
Data set [11] relates to Trypanosoma cruzi. The experiment in a line: Antitrypanosomal activity against amastigote stage of Trypanosoma cruzi Dm28c infected in African green monkey Vero cells assessed as growth inhibition at 30 uM incubated 8 hrs post infection measured after 24 hrs relative to control. The class given is functional. The settings on record: read-out: GI.
For data set [12], the system named is Trypanosoma cruzi. The experiment in a line: Antitrypanosomal activity against amastigote stage of Trypanosoma cruzi Dm28c infected in African green monkey Vero cells assessed as growth inhibition at 1 uM incubated 8 hrs post infection measured after 24 hrs relative to control. Particulars: read-out: GI. The data set is classed as functional.
Data set [13] addresses Cruzipain (Trypanosoma cruzi) (UniProt P25779). The data set is described as follows: Slow binding inhibition of Trypanosoma cruzi cruzipain using Z-Phe-Arg-AMC as substrate at 5 to 500 nM after 30 mins by fluorescence assay.
The target is the same in data set [14]. The data set is described as follows: Reversible inhibition of Trypanosoma cruzi cruzipain at 10 uM pre-incubated for 30 mins.
The target in data set [15] is T1, Cruzipain (Trypanosoma cruzi, UniProt P25779). The experiment in a line: Non-competitive inhibition of Trypanosoma cruzi cruzipain using Z-Phe-Arg-AMC as substrate assessed as function of velocity after 30 mins.
Data set [16] concerns the target T1, Cruzipain. The experiment in a line: Non-competitive inhibition of Trypanosoma cruzi cruzipain using Z-Phe-Arg-AMC as substrate assessed as function of Vmaxapp after 30 mins.

Molecules are shown by their SMILES. The source made the active and inactive calls. The rule behind the calls is not given here.

T1 sequence (P25779 whole entry): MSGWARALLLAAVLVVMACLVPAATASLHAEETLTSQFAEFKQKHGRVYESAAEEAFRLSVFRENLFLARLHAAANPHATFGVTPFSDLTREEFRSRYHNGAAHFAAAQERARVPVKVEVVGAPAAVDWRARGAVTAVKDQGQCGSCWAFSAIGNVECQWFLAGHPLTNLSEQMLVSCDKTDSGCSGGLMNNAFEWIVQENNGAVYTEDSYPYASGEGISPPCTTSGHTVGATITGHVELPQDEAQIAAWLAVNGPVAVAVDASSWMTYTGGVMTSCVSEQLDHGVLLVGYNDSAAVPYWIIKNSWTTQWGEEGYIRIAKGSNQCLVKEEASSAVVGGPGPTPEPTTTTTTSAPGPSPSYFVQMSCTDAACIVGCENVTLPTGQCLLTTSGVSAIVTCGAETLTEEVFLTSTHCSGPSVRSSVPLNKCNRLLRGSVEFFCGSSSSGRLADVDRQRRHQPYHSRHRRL
Sequence of Cruzipain (Trypanosoma cruzi) (P25779 123-467 limits assumed): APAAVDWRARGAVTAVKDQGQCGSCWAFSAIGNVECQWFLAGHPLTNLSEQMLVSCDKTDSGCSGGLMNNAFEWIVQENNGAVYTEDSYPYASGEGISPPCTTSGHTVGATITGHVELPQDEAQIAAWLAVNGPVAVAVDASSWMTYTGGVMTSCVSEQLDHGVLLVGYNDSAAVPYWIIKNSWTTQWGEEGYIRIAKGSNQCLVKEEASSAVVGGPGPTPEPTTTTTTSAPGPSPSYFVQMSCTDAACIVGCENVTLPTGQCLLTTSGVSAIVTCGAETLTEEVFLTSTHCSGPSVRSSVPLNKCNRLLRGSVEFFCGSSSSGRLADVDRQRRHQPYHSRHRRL

Regarding `NC(=[Se])N/N=C/c1cccc(C(F)(F)F)c1`, the figures for the inhibition in [1], in [6] and in data set [7] were 24%, 88% and 91%, respectively. The “growth inhibition (GI)” value in the data set on Trypanosoma cruzi [2] was 34%; in the data set on Trypanosoma cruzi [4] it was 70%; in the data set with Trypanosoma cruzi [9], 74%. In addition, the IC50 – broadly, the point on the concentration scale where inhibition reaches its midpoint – in the data set with Trypanosoma cruzi [3] is 3.8 µM. Also, in data set [5], the “Ratio CC50/IC50” value stood at 44. Moreover, in [8], the CC50 (commonly the concentration giving 50% cytotoxicity) at 72 h is 167 µM.

In the case of `O=C(Cn1ccnc1[N+](=O)[O-])NCc1ccccc1` [BENZNIDAZOLE], in the data set with Trypanosoma cruzi [10], the inhibition of growth at 15 µM was found to be 77%. Besides, the inhibition of growth at 30 µM in the data set on Trypanosoma cruzi [11] stood at 85%. Besides, half-maximal inhibition in the data set with Trypanosoma cruzi [3] (IC50) was put at 12.5 µM. In addition, in the data set on Trypanosoma cruzi [12], the inhibition of growth at 1 µM turned out to be 27%. In addition, in data set [5], the “Ratio CC50/IC50” value came out at 25. Also, the CC50 at 72 h in data set [8] worked out at 309 µM.

Consider `NC(=[Se])N/N=C/c1ccc(Cl)c(Cl)c1`, for which the inhibition – broadly, the percentage by which the read-out fell short of the control – in [1] came to 57%; in [6] it was 96%; in data set [7], 99%. In addition, the “growth inhibition (GI)” value is 63% in the data set on Trypanosoma cruzi [2], 69% with Trypanosoma cruzi [4] and 72% with Trypanosoma cruzi [9]. In the data set with Trypanosoma cruzi [3], this compound returned an IC50 of 2.3 µM. For the same compound, in data set [5], the “Ratio CC50/IC50” value is on record as 41. It took 95.1 µM to reach half-maximal cytotoxicity in data set [8] (CC50 at 72 h).

Take `C/C(=N\NC(N)=[Se])c1cccc(Br)c1`: the inhibition entry in [13] and in [14] was “Active” throughout. Further, the inhibition in data set [1] came out at 81%; in [6] it was 87%; in data set [7] it was 98%. Moreover, the “growth inhibition (GI)” value in the data set with Trypanosoma cruzi [2] turned out to be 76%; in the data set with Trypanosoma cruzi [4], 77%; with Trypanosoma cruzi [9] it was 78%. The same compound showed an IC50 in the data set on Trypanosoma cruzi [3] of 1.2 µM. Besides, the “Ratio CC50/IC50” value in [5] is reported as 39. Also, the inhibition constant (Ki) (as a rule, a dissociation constant, usually derived from enzyme kinetics or from competition with a known ligand) at Cruzipain [15] is 0.0297 µM. The compound further yielded a CC50 at 72 h in data set [8] of 46.4 µM.

On to `NC(=[Se])NN=C(c1cccc(Br)c1)c1cccc(Br)c1`, for which the inhibition entry in data set [13] was “Active”. In addition, the inhibition came to 90% in data set [1], 98% in [6] and 99% in data set [7]. The IC50 with Trypanosoma cruzi [3] was determined as 5.2 µM. Further, the “Ratio CC50/IC50” value in [5] is listed as 14. Moreover, the Ki at Cruzipain [15] came out at 0.0133 µM. This compound came in with a CC50 at 72 h in [8] of 71.2 µM.

For `CCCC/C(=N/NC(N)=[Se])c1ccc(Cl)c(Cl)c1`, in data set [13], the inhibition result is “Active”. For the same compound, the inhibition in data set [1] is 95%; in data set [6], 98%; in data set [7] it was 100%. The “growth inhibition (GI)” value in the data set on Trypanosoma cruzi [2] was 66%; in the data set with Trypanosoma cruzi [4] it was 73%; in the data set with Trypanosoma cruzi [9], 74%. In the data set with Trypanosoma cruzi [3], this compound came in with an IC50 of 3.2 µM. Also, the “Ratio CC50/IC50” value in [5] is recorded as 25. For the same compound, the Ki on Cruzipain [15] is 0.0037 µM; on Cruzipain [16], 0.0064 µM. In data set [8], it took 81.8 µM to reach half-maximal cytotoxicity (CC50 at 72 h).

`NC(=[Se])N/N=C/c1cccc(Br)c1`: the figures for the inhibition in data set [1], in data set [6] and in data set [7] were 40%, 93% and 93%, respectively. For the same compound, in the data set with Trypanosoma cruzi [3], the IC50 came to 5.9 µM. For the same compound, the “Ratio CC50/IC50” value in data set [5] is listed as 29. The compound further registered a CC50 at 72 h in data set [8] of 172 µM.

In the case of `C/C(=N/NC(N)=S)c1cccc(Br)c1`, the values for the inhibition in [1], in data set [6] and in [7] were 24%, 79% and 80%, respectively. In addition, the Ki at Cruzipain [15] stood at 0.142 µM.

The record behind these values is ChEMBL document CHEMBL3217446, “Selenosemicarbazones as potent cruzipain inhibitors and their antiparasitic properties against Trypanosoma cruzi” (Medchemcomm, 2012).
